System: 379773-124-R-J2-PDC complex spheroids, viability % test/control
Assay: Anticancer human tumor 379773-124-R-J2-PDC patient-derived endometrial carcinoma cell line growth inhibition [CLK]
Details: for IC50: curve of first compound; for viability, T/C: stronger effect = lower value
Method in brief: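 Patient-derived tumor cells grown as complex spheroids with HUVEC endothelial cells and mesenchymal stem cells, treated with drug combinations. Concentrations descend in half-log steps from near clinical Cmax, or from 10 microM if Cmax unknown.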

[1] = second compound 0.0316 µM, first compound 0.0316 µM
[2] = second compound 0.0316 µM, first compound 0.1 µM
[3] = second compound 0.1 µM, first compound 0.0316 µM
[4] = second compound 0.1 µM, first compound 0.1 µM
[5] = second compound 0.316 µM, first compound 0.0316 µM
[6] = second compound 0.316 µM, first compound 0.1 µM
[7] = second compound 1 µM, first compound 0.0316 µM
[8] = second compound 1 µM, first compound 0.1 µM
[9] = second compound 3.16 µM, first compound 0.0316 µM
[10] = second compound 3.16 µM, first compound 0.1 µM
[11] = second compound 10 µM, first compound 0.0316 µM
[12] = second compound 10 µM, first compound 0.1 µM
[13] = second compound 0.0316 µM, first compound 0.316 µM
[14] = second compound 0.0316 µM, first compound 1 µM
[15] = second compound 0.0316 µM, first compound 3.16 µM
[16] = second compound 0.0316 µM, first compound 10 µM
[17] = second compound 0.1 µM, first compound 0.316 µM
[18] = second compound 0.1 µM, first compound 1 µM
[19] = second compound 0.1 µM, first compound 3.16 µM
[20] = second compound 0.1 µM, first compound 10 µM
[21] = second compound 0.316 µM, first compound 0.316 µM
[22] = second compound 0.316 µM, first compound 1 µM
[23] = second compound 0.316 µM, first compound 3.16 µM
[24] = second compound 0.316 µM, first compound 10 µM
[25] = second compound 1 µM, first compound 0.316 µM
[26] = second compound 1 µM, first compound 1 µM
[27] = second compound 1 µM, first compound 3.16 µM
[28] = second compound 1 µM, first compound 10 µM
[29] = second compound 3.16 µM, first compound 0.316 µM
[30] = second compound 3.16 µM, first compound 1 µM
[31] = second compound 3.16 µM, first compound 3.16 µM
[32] = second compound 3.16 µM, first compound 10 µM
[33] = second compound 10 µM, first compound 0.316 µM
[34] = second compound 10 µM, first compound 1 µM
[35] = second compound 10 µM, first compound 3.16 µM
[36] = second compound 10 µM, first compound 10 µM
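Further: compound exposure lasted seven days before the viability readout.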
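Wherever viability, T/C is given: 100% = DMSO vehicle control wells.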

With `Cn1ncnc1[C@H]1c2n[nH]c(=O)c3cc(F)cc(c23)N[C@@H]1c1ccc(F)cc1` + CN1CCN(c2cc(C(=O)Nc3cc4cc(-c5cnn(C)c5)ccc4cn3)ccn2)CC1 the IC50 (second compound 0.0316 µM) was 42.6 nM, the IC50 (second compound 0.1 µM) was 22.2 nM and the IC50 (second compound 0.316 µM) was less than 0.316 nM. For the same compound, the IC50 (second compound 1 µM) was less than 0.316 nM, the IC50 (second compound 3.16 µM) was less than 0.316 nM and the IC50 (second compound 10 µM) was less than 0.316 nM. The viability, T/C (second compound 0.0316 µM, first compound 0.000316 µM) was 87.8%, the viability, T/C (second compound 0.0316 µM, first compound 0.001 µM) was 96.2% and the viability, T/C (second compound 0.0316 µM, first compound 0.00316 µM) was 80.3%. The viability, T/C (second compound 0.0316 µM, first compound 0.01 µM) was 92.6%, the viability, T/C [1] was 55.6% and the viability, T/C [2] was 34%. It also gave a viability, T/C (second compound 0.1 µM, first compound 0.000316 µM) of 87%, a viability, T/C (second compound 0.1 µM, first compound 0.001 µM) of 82.6% and a viability, T/C (second compound 0.1 µM, first compound 0.00316 µM) of 79.1%. It also gave a viability, T/C (second compound 0.1 µM, first compound 0.01 µM) of 64.1%, a viability, T/C [3] of 43.6% and a viability, T/C [4] of 27%. It also gave a viability, T/C (second compound 0.316 µM, first compound 0.000316 µM) of 24.1%, a viability, T/C (second compound 0.316 µM, first compound 0.001 µM) of 29.2% and a viability, T/C (second compound 0.316 µM, first compound 0.00316 µM) of 17.9%. The viability, T/C (second compound 0.316 µM, first compound 0.01 µM) was 21.4%, the viability, T/C [5] was 15.2% and the viability, T/C [6] was 12.3%. For the same compound, the viability, T/C (second compound 1 µM, first compound 0.000316 µM) was 0.11%, the viability, T/C (second compound 1 µM, first compound 0.001 µM) was 0.8% and the viability, T/C (second compound 1 µM, first compound 0.00316 µM) was 0.33%. The viability, T/C (second compound 1 µM, first compound 0.01 µM) was 0.19%, the viability, T/C [7] was 0.06% and the viability, T/C [8] was 0.07%. For the same compound, the viability, T/C (second compound 3.16 µM, first compound 0.000316 µM) was 1.37%, the viability, T/C (second compound 3.16 µM, first compound 0.001 µM) was 0.24% and the viability, T/C (second compound 3.16 µM, first compound 0.00316 µM) was 0.23%. For the same compound, the viability, T/C (second compound 3.16 µM, first compound 0.01 µM) was 0.07%, the viability, T/C [9] was 1.63% and the viability, T/C [10] was 0.08%. The viability, T/C (second compound 10 µM, first compound 0.000316 µM) was 1.25%, the viability, T/C (second compound 10 µM, first compound 0.001 µM) was 0.1% and the viability, T/C (second compound 10 µM, first compound 0.00316 µM) was 0.49%. For the same compound, the viability, T/C (second compound 10 µM, first compound 0.01 µM) was 0.52%, the viability, T/C [11] was 0.29% and the viability, T/C [12] was 0.13%.
With `Nc1ccn(C2OC(CO)C(O)C2(F)F)c(=O)n1` (stereo unspecified) + CN1CCN(c2cc(C(=O)Nc3cc4cc(-c5cnn(C)c5)ccc4cn3)ccn2)CC1 the IC50 (second compound 0.0316 µM) was less than 31.6 nM, the IC50 (second compound 0.1 µM) was less than 31.6 nM and the IC50 (second compound 0.316 µM) was less than 31.6 nM. For the same compound, the IC50 (second compound 1 µM) was less than 31.6 nM, the IC50 (second compound 3.16 µM) was less than 31.6 nM and the IC50 (second compound 10 µM) was less than 31.6 nM. The viability, T/C [1] was 10.9%, the viability, T/C [2] was 5.93% and the viability, T/C [13] was 5%. For the same compound, the viability, T/C [14] was 6.45%, the viability, T/C [15] was 6.59% and the viability, T/C [16] was 3.28%. The viability, T/C [3] was 10.4%, the viability, T/C [4] was 5.09% and the viability, T/C [17] was 4.66%. The viability, T/C [18] was 5.3%, the viability, T/C [19] was 4.72% and the viability, T/C [20] was 1.97%. For the same compound, the viability, T/C [5] was 7.96%, the viability, T/C [6] was 4.03% and the viability, T/C [21] was 2.64%. The viability, T/C [22] was 2.49%, the viability, T/C [23] was 1.51% and the viability, T/C [24] was 0.83%. The viability, T/C [7] was 0.1%, the viability, T/C [8] was 0.12% and the viability, T/C [25] was 0.11%. The viability, T/C [26] was 0.05%, the viability, T/C [27] was 1.02% and the viability, T/C [28] was 0.05%. The viability, T/C [9] was 0.08%, the viability, T/C [10] was 0.11% and the viability, T/C [29] was 0.12%. The viability, T/C [30] was 0.07%, the viability, T/C [31] was 0.82% and the viability, T/C [32] was 0.09%. The viability, T/C [11] was 0.18%, the viability, T/C [12] was 1.56% and the viability, T/C [33] was 0.87%. For the same compound, the viability, T/C [34] was 1.76%, the viability, T/C [35] was 0.56% and the viability, T/C [36] was 0.13%.
`O=C(c1cc(Cc2n[nH]c(=O)c3ccccc23)ccc1F)N1CCN(C(=O)C2CC2)CC1` + CN1CCN(c2cc(C(=O)Nc3cc4cc(-c5cnn(C)c5)ccc4cn3)ccn2)CC1 gave an IC50 (second compound 0.0316 µM) greater than 10000 nM, an IC50 (second compound 0.1 µM) of 6850 nM and an IC50 (second compound 0.316 µM) of less than 31.6 nM. For the same compound, the IC50 (second compound 1 µM) was less than 31.6 nM, the IC50 (second compound 3.16 µM) was less than 31.6 nM and the IC50 (second compound 10 µM) was less than 31.6 nM. It also gave a viability, T/C [1] of 101%, a viability, T/C [2] of 98.7% and a viability, T/C [13] of 87.9%. For the same compound, the viability, T/C [14] was 89.9%, the viability, T/C [15] was 78.6% and the viability, T/C [16] was 51.7%. For the same compound, the viability, T/C [3] was 73.5%, the viability, T/C [4] was 76.6% and the viability, T/C [17] was 87.8%. The viability, T/C [18] was 94.2%, the viability, T/C [19] was 76.6% and the viability, T/C [20] was 36.9%. For the same compound, the viability, T/C [5] was 16.7%, the viability, T/C [6] was 22.3% and the viability, T/C [21] was 15.1%. For the same compound, the viability, T/C [22] was 23.2%, the viability, T/C [23] was 16.8% and the viability, T/C [24] was 12.3%. It also gave a viability, T/C [7] of 0.11%, a viability, T/C [8] of 1.49% and a viability, T/C [25] of 0.2%. The viability, T/C [26] was 1.01%, the viability, T/C [27] was 0.08% and the viability, T/C [28] was 1.87%. It also gave a viability, T/C [9] of 1.24%, a viability, T/C [10] of 0.11% and a viability, T/C [29] of 1.32%. For the same compound, the viability, T/C [30] was 0.09%, the viability, T/C [31] was 0.1% and the viability, T/C [32] was 0.09%. The viability, T/C [11] was 0.19%, the viability, T/C [12] was 0.11% and the viability, T/C [33] was 0.46%. For the same compound, the viability, T/C [34] was 0.66%, the viability, T/C [35] was 0.18% and the viability, T/C [36] was 0.19%.

— PubChem BioAssay AID2060604 (Molecular Pharmacology Branch, DTP, NCI, 2025)
